Experimental data reported in patent US11572344B2, “Cyanoaryl-aniline compounds for treatment of dermal disorders” (NFlection Therapeutics, Inc., priority 2018, dated 2023).

Columns and labels:
A375 cells = assay: A375 (BRAF) GI50 cell-based assay (Cell Titer-Glo); conditions: Homo sapiens, A-375, 72 hours, read-out: Assay 2: A375 (BRAF) GI50
Protocol: (§1) Alternatively, the following procedure can be used to measure cell-based activity. Test compounds were dissolved in DMSO in 10 mM stock. Cell Titer-Glo® 2.0 Luminescent cell viability assay reagent was purchased from Promega (Madison, Wis.). A375 and HCT116 cell lines were purchased from American Type Culture Collection (Manassas, Va.). For A375 cells, cell culture media was DMEM+10% FBS. For HCT116 cells, cell culture media was McCoy's 5A+10% FBS. All media were supplemented with 100 μg/mL of penicillin, and 100 μg/mL of streptomycin. Cultures were maintained at 37° C. in a humidified atmosphere of 5% CO2 and 95% air.
(§2) Test compounds were diluted in DMSO solution with 10-dose and 3-fold dilutions in a source plate starting at 10 mM. 25 nL of each test compound was delivered from the source plate to each well of the 384-well cell culture plates (T=Final) by Echo 550. 25 μL of culture medium containing 2000 of A375 or HCT116 cells was added to each of the wells in duplicates of the cell culture plates (T=0 and T=Final). 25 μL of Cell Titer Glo 2.0 reagent was added to each well of cell culture plate (T=0). The contents were mixed on an orbital shaker for 2 min and incubated at room temperature for 15 min to stabilize luminescent signal. Luminescence was recorded by Envision 2104 Multilabel Reader (PerkinElmer, Santa Clara, Calif.). The number of viable cells in culture was determined based on quantitation of the ATP present in each culture well. The cells in cell culture plate (T=Final) were incubated with the compounds at 37° C., 5% CO2 for 72 hours. 25 μL of Cell Titer Glo 2.0 reagent was added to each well. The contents were mixed on an orbital shaker for 2 min and incubated at room temperature for 15 min to stabilize luminescent signal. Luminescence was recorded by Envision 2104 Multilabel Reader (PerkinElmer, Santa Clara, Calif.). The number of viable cells in culture was determined based on quantitation of the ATP present in each culture well. The GI50 curves were plotted using the GraphPad Prism 4 program based on a sigmoidal dose-response equation Y=Bottom+(Top-Bottom)/(1+10^((Log EC50−X)*HillSlope)). All parameters in the equation were calculated by GraphPad Prism 4 program. […] Accordingly, GI50 is the value of 10^X, where X was calculated by the Curve Fitting Equation when Y=50 using Excel.
Assay 2 is the A375 (BRAF) GI50 (nM) cell-based assay as described in Example 41.

HCT116 cells = assay: HCT116 (Kras) GI50 cell-based assay (Cell Titer-Glo); conditions: Homo sapiens, HCT-116, 72 hours, read-out: Assay 3: HCT116 (Kras) GI50
Protocol: as §1, §2
Assay 3 is the HCT116 (Kras) GI50 (nM) assay as described in Example 41.

[1] = tested on: pERK in human cutaneous neurofibroma explants; assay: Human cutaneous neurofibroma explant pERK suppression (Western blot); type: cell-based
Protocol: Explant Protocol: Human cutaneous neurofibroma explant samples were collected in DMEM/F-12 (Thermo Fisher, Cat #11320033) supplemented with 1×B27 supplement (Thermo Fisher, Cat #17504044), 2.5 μg/ml of Amphotericin B (Thermo Fisher, Cat #15290018), and 50 units/ml of Penicillin-50 μg/ml of Streptomycin (Thermo Fisher, Cat #15070063) and incubated in the same medium for subsequent treatment. The specimen was cut into small cubes containing both the epidermis and dermis. The tissues were partially submerged in the medium in 384-well plate with the epidermis exposed to the air.
The tissues were fully submerged in the medium in 48-well plate and 5 μl of compounds dissolved in DMSO were added to 200 μl of the medium in each well. After 4 h incubation at 37° C. and 5% CO2, the tissues were harvested and half of the specimen was flash frozen in liquid nitrogen for Western Blot analysis. The other half of the specimen was fixed for 24 hours in 10% formalin and then transferred to 70% ethanol for […].
Skin samples were thawed on ice and weighed. 10 volume (10 μl for each mg of tissue) of lysis buffer (RIPA buffer+0.5 mM EDTA+1×Halt protease and phosphatase inhibitor cocktail) was then added to each sample. […]
Western Blot analysis: The lysate was thawed on ice and protein concentration was determined by the BCA protein assay kit using bovine serum albumin (BSA) as standards. […]

GI50 (A375 cells) [nM]	GI50 (HCT116 cells) [nM]	Compound	suppression of pERK in human cutaneous neurofibroma (cNF) explants ([1]; concentration of 500 nM (FIG. 5))	suppression of pERK in human cutaneous neurofibroma (cNF) explants ([1]; treatment for 4 hours at 5 nM, 50 nM, and 500 nM (FIG. 4))
≤ 500	≤ 750	N#Cc1ccc(C(=O)NOCCO)c(Nc2ccc(I)cc2F)c1 [Compound 1.010]		
≤ 500	≤ 750	N#Cc1ccc(C(=O)NOCCO)c(Nc2ccc(I)cc2F)c1F [Compound 1.030, 4-cyano-3-fluoro-2-((2-fluoro-4-iodophenyl)amino)-N-(2-hydroxyethoxy) benzamide]	suppression of pERK	suppression of pERK
≤ 500	750 to 2000	N#Cc1ccc(C(=O)NOCC2CC2)c(Nc2ccc(I)cc2F)c1F [Compound 1.031]		
